The structures appear in SMILES notation.

What all share (test): Kinase panel profiling at 1 µmol/L (MSA or IMAP), percentage inhibition
Holding throughout (type): biochemical

Assay [1] concerns the target panel of 255 wild-type kinases (Homo sapiens, UniProt Q9H1R3). Conditions: kinase skMLCK; 1 µmol/L single concentration; read-out: %-inhibition at 1 µmol/L, skMLCK.
The target in assay [2] is panel of 255 wild-type kinases (Homo sapiens, UniProt Q04759). Conditions: kinase PKCθ; 1 µmol/L single concentration; read-out: %-inhibition at 1 µmol/L, PKCθ.
In assay [3] the target is panel of 255 wild-type kinases (Homo sapiens, UniProt P06239). Conditions: kinase LCK; 1 µmol/L single concentration; read-out: %-inhibition at 1 µmol/L, LCK.
The target in assay [4] is panel of 255 wild-type kinases (Homo sapiens, UniProt P11309). Conditions: kinase PIM1; 1 µmol/L single concentration; read-out: %-inhibition at 1 µmol/L, PIM1.
Assay [5] has as its target panel of 255 wild-type kinases (Homo sapiens, UniProt Q5VT25). The following applies: MRCKα; 1 µmol/L single concentration; read-out: %-inhibition, MRCKα.
For assay [6], the target named is panel of 255 wild-type kinases (Homo sapiens, UniProt P42685). Conditions: kinase FRK; 1 µmol/L single concentration; read-out: %-inhibition at 1 µmol/L, FRK.
Assay [7] has as its target panel of 255 wild-type kinases (Homo sapiens, UniProt Q96SB4). Conditions: kinase SRPK1; 1 µmol/L single concentration; read-out: %-inhibition at 1 µmol/L, SRPK1.
The target of assay [8] is panel of 255 wild-type kinases (Homo sapiens, UniProt P08069). The following applies: kinase IGF1R; 1 µmol/L single concentration; read-out: %-inhibition at 1 µmol/L, IGF1R.
Assay [9] addresses T1, panel of 255 wild-type kinases (Homo sapiens, UniProt O43781).
T1 sequence (O43781 1-588): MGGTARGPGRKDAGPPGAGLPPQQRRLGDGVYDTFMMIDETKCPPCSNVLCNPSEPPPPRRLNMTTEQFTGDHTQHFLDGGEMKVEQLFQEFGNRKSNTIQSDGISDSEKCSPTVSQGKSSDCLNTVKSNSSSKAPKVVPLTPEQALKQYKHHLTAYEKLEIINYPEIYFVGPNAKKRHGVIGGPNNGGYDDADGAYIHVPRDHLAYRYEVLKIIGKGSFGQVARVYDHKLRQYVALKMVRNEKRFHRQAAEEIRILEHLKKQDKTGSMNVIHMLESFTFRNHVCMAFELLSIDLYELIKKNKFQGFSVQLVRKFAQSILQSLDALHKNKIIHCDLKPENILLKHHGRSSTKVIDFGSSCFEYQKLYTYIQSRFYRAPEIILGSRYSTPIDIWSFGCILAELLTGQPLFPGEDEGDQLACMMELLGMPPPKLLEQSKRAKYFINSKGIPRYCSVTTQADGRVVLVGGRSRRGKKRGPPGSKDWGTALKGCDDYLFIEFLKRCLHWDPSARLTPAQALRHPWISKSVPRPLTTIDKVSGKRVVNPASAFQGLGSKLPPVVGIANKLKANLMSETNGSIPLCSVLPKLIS
The following applies: kinase DYRK3; 1 µmol/L single concentration; read-out: %-inhibition at 1 µmol/L, DYRK3.

The target in assay [10] is panel of 255 wild-type kinases (Homo sapiens, UniProt Q9BUB5). Conditions: MNK1; 1 µmol/L single concentration; read-out: %-inhibition, MNK1.
Assay [11] concerns the target panel of 255 wild-type kinases (Homo sapiens, UniProt P08631). Conditions: kinase HCK; 1 µmol/L single concentration; read-out: %-inhibition at 1 µmol/L, HCK.
The target in assay [12] is T2, panel of 255 wild-type kinases (Homo sapiens, UniProt P30530).
T2 sequence (P30530 26-894): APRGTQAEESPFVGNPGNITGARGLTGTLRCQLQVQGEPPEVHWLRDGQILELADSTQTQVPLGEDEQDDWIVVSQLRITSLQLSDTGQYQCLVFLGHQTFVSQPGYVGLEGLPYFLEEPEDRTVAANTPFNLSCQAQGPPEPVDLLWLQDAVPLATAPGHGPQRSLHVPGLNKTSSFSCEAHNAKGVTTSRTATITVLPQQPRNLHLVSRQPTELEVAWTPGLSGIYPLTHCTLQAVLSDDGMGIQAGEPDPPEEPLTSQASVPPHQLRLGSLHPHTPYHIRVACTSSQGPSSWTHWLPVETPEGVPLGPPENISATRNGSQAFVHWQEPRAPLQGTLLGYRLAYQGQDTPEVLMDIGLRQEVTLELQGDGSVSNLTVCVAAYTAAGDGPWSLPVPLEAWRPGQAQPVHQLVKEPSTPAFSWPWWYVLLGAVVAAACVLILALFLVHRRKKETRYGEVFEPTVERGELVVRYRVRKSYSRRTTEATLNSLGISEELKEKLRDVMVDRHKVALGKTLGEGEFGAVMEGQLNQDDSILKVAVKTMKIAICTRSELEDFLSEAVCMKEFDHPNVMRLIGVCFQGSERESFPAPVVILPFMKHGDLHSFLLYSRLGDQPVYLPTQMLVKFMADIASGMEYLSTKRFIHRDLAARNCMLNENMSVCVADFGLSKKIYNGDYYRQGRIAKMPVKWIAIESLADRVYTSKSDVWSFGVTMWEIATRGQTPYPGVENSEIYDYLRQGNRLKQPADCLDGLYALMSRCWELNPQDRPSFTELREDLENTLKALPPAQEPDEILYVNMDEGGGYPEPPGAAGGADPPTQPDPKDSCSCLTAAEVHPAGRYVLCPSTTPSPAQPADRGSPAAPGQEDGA
Conditions: AXL kinase assay; 1 µmol/L single concentration; read-out: %-inhibition AXL.

Assay [13] addresses panel of 255 wild-type kinases (Homo sapiens, UniProt P45984). Conditions: kinase JNK2; 1 µmol/L single concentration; read-out: %-inhibition at 1 µmol/L, JNK2.
The target of assay [14] is panel of 255 wild-type kinases (Homo sapiens, UniProt Q9UQM7). Conditions: CaMK2α kinase assay; 1 µmol/L single concentration; read-out: %-inhibition CaMK2α.
The target in assay [15] is panel of 255 wild-type kinases (Homo sapiens, UniProt P00533). Conditions: kinase EGFR; 1 µmol/L single concentration; read-out: %-inhibition at 1 µmol/L, EGFR.

For `CCc1nc(C(N)=O)c(Nc2ccc(N3CCC(N4CCN(C)CC4)CC3)c(OC)c2)nc1NC1CCOCC1` [gilteritinib], the inhibition at 1 µM turned out to be 5% in [1]; 12% in [2]; 97% in assay [3]; 6% in assay [4]; 12% in [5]; 95% in assay [6]. The inhibition at 1 µM in assay [7] is -8%; in assay [8] it was 99%; in [9], 27%; in assay [10] it was 70%; in [11], 87%; in assay [12] it was 100%. For the same compound, the inhibition at 1 µM worked out at 44% in assay [13], 36% in assay [14] and 85% in [15].
For `O=C(Nc1cnn2ccc(N3CCC[C@@H]3c3cc(F)ccc3F)nc12)N1CC[C@H](O)C1` [larotrectinib], the inhibition at 1 µM was -6% in [1]; -2.77% in [2]; 1.14% in assay [3]; -5.32% in assay [4]; 0.38% in assay [5]; -0.308% in assay [6]. Also, the inhibition at 1 µM in assay [7] was -12%; in assay [8], 3.6%; in assay [9] it was -6%; in [10] it was -5.37%; in assay [11] it was -3%; in assay [12], 4.22%. For the same compound, the inhibition at 1 µM is -0.671% in assay [13], 2.74% in assay [14] and 5% in [15].
Turning to `CCN1C(=O)N(c2c(F)c(OC)cc(OC)c2F)Cc2cnc3[nH]c(CN4CCOCC4)cc3c21` [pemigatinib], the inhibition at 1 µM in assay [1] is 30%; in [2] it was -2.16%; in assay [3] it was 17%; in [4] it was -7%; in assay [5], -3.23%; in [6], 10%. Further, the inhibition at 1 µM in [7] is -12%; in assay [8], 7%; in assay [9], -2.68%; in [10] it was -4.63%; in assay [11], 31%; in [12], 4.45%. In addition, the inhibition at 1 µM was 1.27% in [13], 5% in assay [14] and -2% in [15].
As for `CO[C@]1(C(=O)N[C@@H](C)c2ccc(-n3cc(F)cn3)nc2)CC[C@H](c2nc(C)cc(Nc3cc(C)[nH]n3)n2)CC1` [pralsetinib], the inhibition at 1 µM in [1] is 5%; in [2] it was -0.598%; in [3], 98%; in assay [4] it was -1.53%; in assay [5], 1.82%; in [6], 82%. In addition, the inhibition at 1 µM was -4% in assay [7]; 10% in assay [8]; -4.32% in assay [9]; -4.32% in [10]; 82% in assay [11]; 92% in [12]. The inhibition at 1 µM in assay [13] was 5%; in assay [14], -1.59%; in [15] it was 48%.
Consider `CCn1c(=O)c(-c2cc(NC(=O)Nc3ccccc3)c(F)cc2Br)cc2cnc(NC)cc21` [ripretinib], for which the inhibition at 1 µM is 69% in assay [1]; -3% in assay [2]; 99% in assay [3]; -5% in assay [4]; -1.14% in assay [5]; 87% in [6]. Also, the inhibition at 1 µM was -13% in assay [7]; 3.34% in assay [8]; -3.77% in assay [9]; 8.51% in assay [10]; 60% in assay [11]; 4% in assay [12]. The inhibition at 1 µM in assay [13] was 35%; in assay [14], -5.68%; in assay [15], 10%.
`COc1ccc(CN2C3CC2CN(c2ccc(-c4cc(OCC(C)(C)O)cn5ncc(C#N)c45)cn2)C3)cn1` [selpercatinib]: the inhibition at 1 µM was -0.264% in assay [1]; -2.29% in [2]; 77% in assay [3]; -5.68% in [4]; -2.65% in assay [5]; 13% in [6]. The inhibition at 1 µM in assay [7] was -9%; in assay [8], 3%; in assay [9], 19%; in assay [10], 42%; in assay [11], 58%; in [12], 93%. The inhibition at 1 µM is -1.07% in assay [13], 1.43% in [14] and 0.116% in [15].
For `Cn1cnc2c(F)c(Nc3ccc(Br)cc3Cl)c(C(=O)NOCCO)cc21` [selumetinib], the inhibition at 1 µM in assay [1] is 0.627%; in [2], -0.321%; in [3], 8%; in assay [4], -6%; in [5], 2.24%; in [6] it was -3%. Besides, the inhibition at 1 µM in [7] was 6%; in assay [8], 5.57%; in assay [9], -4.7%; in [10] it was -6.56%; in assay [11] it was 4%; in assay [12] it was 26%. For the same compound, the inhibition at 1 µM in assay [13] was -2.13%; in assay [14] it was -1.34%; in assay [15], 26%.

(Values after paper PMC9516332 (Frontiers in Oncology, 2022).)
